Measured values published in patent publication US20020137929A1, “1 - (3-heterocyclylphenyl) isothiourea, -isourea, -guanidine and -amidine herbicidal agents” (Intellectual Property Department, BASF Aktiengesellschaft, priority 1998, published 2002).

What was measured:
[1] = test system: IPOHE (Morningglory, Ivyleaf); experiment: Preemergence herbicidal evaluation; type: in vivo, Ipomoea hederacea; conditions: rated 4-5 weeks after treatment; for IPOHE rating: preemergence, 0-9 scale
Outline: (§1)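 Herbicidal effect scored visually, 0-9, at 4 to 5 weeks against a control; compound applied preemergence by aqueous acetone spray to seeded soil at about 0.0156 to 0.500 kg/ha.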

ABUTH (Velvetleaf) = experiment: Preemergence herbicidal evaluation; type: in vivo, Abutilon theophrasti; conditions: rated 4-5 weeks after treatment; for ABUTH rating: preemergence, 0-9 scale
Outline: as §1

[2] = test system: SAGPY (Arrowhead (Pygmaea)); experiment: Postemergence weed control under flooded paddy conditions; type: in vivo, Sagittaria pygmaea; conditions: postemergence weeds
Outline: (§2)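 Injury ratings (0–9 scale covering stand, vigor, malformation, size, chlorosis and overall appearance versus control) were made three to four weeks after treatment. Test material, about 0.0313 to 0.500 kg/ha a.i. in 50/50 v/v aqueous/acetone, was added to flood water 1.5 to 3 cm deep over 3 to 5 cm weeds and 1.5 to 2.5 leaf rice.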

[3] = test system: IPOHE (Morningglory, Ivyleaf); experiment: Postemergence herbicidal evaluation; type: in vivo, Ipomoea hederacea; conditions: postemergence
Outline: (§3)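 Two-week seedlings sprayed postemergence at 40 psi; formulation: 1:1 acetone/water, 0.5% TWEEN 20; application ≈0.0156–0.500 kg/ha. Greenhouse grow-out, then 0–9 visual scoring at 4–5 weeks.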

MOOVA (Monochoria) = experiment: Preemergence weed control under flooded paddy conditions; type: in vivo, Monochoria vaginalis; conditions: rated 3-4 weeks after treatment
Outline: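 Herbicidal effect is scored visually on a 0-9 scale against an untreated control, three to four weeks after compounds are pipetted into the flood water (1.5 to 3 cm deep) over seeds planted in silt loam at 0.5 cm depth. Rates: about 0.0313 to 0.500 kg/ha.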

GALAP (Galium) = experiment: Postemergence herbicidal evaluation; type: in vivo, Galium aparine; conditions: postemergence
Outline: as §3

ZEAMX (Corn, Field) = experiment: Preemergence herbicidal evaluation; type: in vivo, Zea mays; conditions: rated 4-5 weeks after treatment; for ZEAMX rating: preemergence, 0-9 scale
Outline: as §1

CYPIR (Rice Flatsedge) = experiment: Preemergence weed control under flooded paddy conditions; type: in vivo, Cyperus iria; conditions: rated 3-4 weeks after treatment
Outline: (§4)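 Visual injury scored 0-9 against control three to four weeks post-treatment, greenhouse-grown. Application: acetone/water (50/50) solutions dosed directly into flood water (1.5-3 cm over silt loam, planted top 0.5 cm), roughly 0.0313 to 0.500 kg/ha active ingredient.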

SETVI (Foxtail, Green) [4] = experiment: Preemergence herbicidal evaluation; type: in vivo, Setaria viridis; conditions: rated 4-5 weeks after treatment; for SETVI rating: preemergence, 0-9 scale
Outline: as §1

SETVI (Foxtail, Green) [5] = experiment: Postemergence herbicidal evaluation; type: in vivo, Setaria viridis; conditions: postemergence
Outline: as §3

ECHCG (Barnyardgrass) = experiment: Preemergence herbicidal evaluation; type: in vivo, Echinochloa crus-galli; conditions: rated 4-5 weeks after treatment; for ECHCG rating: preemergence, 0-9 scale
Outline: as §1

[6] = test system: ECHORC (Watergrass (Calif.)); experiment: Postemergence weed control under flooded paddy conditions; type: in vivo, Echinochloa oryzoides; conditions: postemergence weeds
Outline: as §2

[7] = test system: TRZAWR (Wheat, Winter, cv Riband); experiment: Postemergence herbicidal evaluation; type: in vivo, Triticum aestivum; conditions: postemergence
Outline: as §3

[8] = test system: ECHORC (Watergrass (Calif.)); experiment: Preemergence weed control under flooded paddy conditions; type: in vivo, Echinochloa oryzoides; conditions: rated 3-4 weeks after treatment
Outline: as §4

[9] = Rate 0.0313 kg/ha, rated 3 to 4 weeks after treatment
[10] = Rate 0.0625 kg/ha, rated 3 to 4 weeks after treatment
[11] = Rate 0.1250 kg/ha, rated 3 to 4 weeks after treatment
[12] = Rate 0.2500 kg/ha, rated 3 to 4 weeks after treatment
[13] = Rate 0.5000 kg/ha, rated 3 to 4 weeks after treatment
[14] = rate 0.1160 kg/ha, 3-4 weeks after treatment
[15] = rate 0.2310 kg/ha, 3-4 weeks after treatment
[16] = rate 0.4630 kg/ha, 3-4 weeks after treatment

CCOC(=O)CN1C(=O)C(CC(=O)OC(C)C(=O)OCC)S/C1=N/c1cc(-n2c(=O)cc(C(F)(F)F)n(C)c2=O)c(F)cc1Cl (centres unmarked) [Compound 87]
7.0: Herbicidal rating SAGPY [2, 13] | CYPIR herbicidal effect rating (CYPIR (Rice Flatsedge); 0.5000 kg/ha) | SETVI herbicidal rating (SETVI (Foxtail, Green) [5]; rate 0.1250 kg/ha) | SETVI herbicidal rating (SETVI (Foxtail, Green) [5]; rate 0.2500 kg/ha)
9.0: ABUTH rating (ABUTH (Velvetleaf); 0.2500 kg/ha) | ABUTH rating (ABUTH (Velvetleaf); 0.5000 kg/ha) | IPOHE herbicidal rating ([3]; rate 0.0156 kg/ha) | IPOHE herbicidal rating ([3]; rate 0.0313 kg/ha) | IPOHE herbicidal rating ([3]; rate 0.0625 kg/ha) | IPOHE herbicidal rating ([3]; rate 0.1250 kg/ha) | IPOHE herbicidal rating ([3]; rate 0.2500 kg/ha) | MOOVA herbicidal effect rating (MOOVA (Monochoria); 0.0313 kg/ha) | MOOVA herbicidal effect rating (MOOVA (Monochoria); 0.0625 kg/ha) | MOOVA herbicidal effect rating (MOOVA (Monochoria); 0.1250 kg/ha) | MOOVA herbicidal effect rating (MOOVA (Monochoria); 0.2500 kg/ha) | MOOVA herbicidal effect rating (MOOVA (Monochoria); 0.5000 kg/ha) | SETVI rating (SETVI (Foxtail, Green) [4]; 0.5000 kg/ha)
5.0: IPOHE rating ([1]; 0.2500 kg/ha) | Herbicidal rating SAGPY [2, 12] | CYPIR herbicidal effect rating (CYPIR (Rice Flatsedge); 0.0313 kg/ha) | CYPIR herbicidal effect rating (CYPIR (Rice Flatsedge); 0.0625 kg/ha) | CYPIR herbicidal effect rating (CYPIR (Rice Flatsedge); 0.1250 kg/ha) | CYPIR herbicidal effect rating (CYPIR (Rice Flatsedge); 0.2500 kg/ha)
0.0: Herbicidal rating SAGPY [2, 9] | GALAP herbicidal rating (GALAP (Galium); rate 0.0156 kg/ha) | GALAP herbicidal rating (GALAP (Galium); rate 0.0313 kg/ha) | ZEAMX rating (ZEAMX (Corn, Field); 0.1250 kg/ha) | ZEAMX rating (ZEAMX (Corn, Field); 0.2500 kg/ha) | SETVI rating (SETVI (Foxtail, Green) [4]; 0.1250 kg/ha) | SETVI rating (SETVI (Foxtail, Green) [4]; 0.2500 kg/ha) | SETVI herbicidal rating (SETVI (Foxtail, Green) [5]; rate 0.0156 kg/ha) | SETVI herbicidal rating (SETVI (Foxtail, Green) [5]; rate 0.0313 kg/ha) | ECHCG rating (ECHCG (Barnyardgrass); 0.1250 kg/ha) | ECHCG rating (ECHCG (Barnyardgrass); 0.2500 kg/ha) | ECHCG rating (ECHCG (Barnyardgrass); 0.5000 kg/ha) | Herbicidal rating ECHORC [6, 9] | Herbicidal rating ECHORC [6, 10] | ECHORC herbicidal effect rating ([8]; 0.0313 kg/ha) | ECHORC herbicidal effect rating ([8]; 0.0625 kg/ha)
2.0: SETVI herbicidal rating (SETVI (Foxtail, Green) [5]; rate 0.0625 kg/ha) | Herbicidal rating ECHORC [6, 11] | ECHORC herbicidal effect rating ([8]; 0.1250 kg/ha)
4.0: Herbicidal rating SAGPY [2, 10] | Herbicidal rating SAGPY [2, 11]
4.5: TRZAWR herbicidal rating ([7]; rate 0.0625 kg/ha) | TRZAWR herbicidal rating ([7]; rate 0.1250 kg/ha)
6.0: IPOHE rating ([1]; 0.5000 kg/ha) | TRZAWR herbicidal rating ([7]; rate 0.2500 kg/ha)
3.0: ABUTH rating (ABUTH (Velvetleaf); 0.1250 kg/ha) | GALAP herbicidal rating (GALAP (Galium); rate 0.2500 kg/ha) | Herbicidal rating ECHORC [6, 12] | Herbicidal rating ECHORC [6, 13] | TRZAWR herbicidal rating ([7]; rate 0.0313 kg/ha) | ECHORC herbicidal effect rating ([8]; 0.2500 kg/ha) | ECHORC herbicidal effect rating ([8]; 0.5000 kg/ha)
1.0: IPOHE rating ([1]; 0.1250 kg/ha) | GALAP herbicidal rating (GALAP (Galium); rate 0.0625 kg/ha) | GALAP herbicidal rating (GALAP (Galium); rate 0.1250 kg/ha) | ZEAMX rating (ZEAMX (Corn, Field); 0.5000 kg/ha)
2.5: TRZAWR herbicidal rating ([7]; rate 0.0156 kg/ha)

CCOC(=O)CN1C(=O)C(=Cc2ccc(F)cc2)SC1=Nc1cc(-n2c(=O)cc(C(F)(F)F)n(C)c2=O)c(F)cc1Cl [Compound 21, Ethyl 2-{{2-chloro-5-[3,6-dihydro-3-methyl-2,6-dioxo-4-(trifluoromethyl)-1(2H)-pyrimidinyl]-4-fluorophenyl}imino}-5-(p-fluorobenzylidene)-4-oxo-3-thiazolidineacetate]
3.5: TRZAWR herbicidal rating ([7]; rate 0.0315 kg/ha) | TRZAWR herbicidal rating ([7]; rate 0.0630 kg/ha)
9.0: IPOHE herbicidal rating ([3]; rate 0.0630 kg/ha)
5.0: Herbicidal rating ECHORC [6, 16] | Herbicidal rating ECHORC ([8]; 0.4630 kg/ha)
0.0: IPOHE preemergence herbicidal rating ([1]; rate 0.2500 kg/ha) | Herbicidal rating SAGPY [2, 14] | Herbicidal rating SAGPY [2, 15] | Herbicidal rating SAGPY [2, 16] | Herbicidal rating MOOVA (MOOVA (Monochoria); 0.1160 kg/ha) | Herbicidal rating MOOVA (MOOVA (Monochoria); 0.2310 kg/ha) | Herbicidal rating MOOVA (MOOVA (Monochoria); 0.4630 kg/ha) | ZEAMX preemergence herbicidal rating (ZEAMX (Corn, Field); rate 0.2500 kg/ha) | Herbicidal rating CYPIR (CYPIR (Rice Flatsedge); 0.1160 kg/ha) | Herbicidal rating CYPIR (CYPIR (Rice Flatsedge); 0.2310 kg/ha) | Herbicidal rating CYPIR (CYPIR (Rice Flatsedge); 0.4630 kg/ha) | SETVI preemergence herbicidal rating (SETVI (Foxtail, Green) [4]; rate 0.2500 kg/ha) | SETVI herbicidal rating (SETVI (Foxtail, Green) [5]; rate 0.0158 kg/ha) | ECHCG preemergence herbicidal rating (ECHCG (Barnyardgrass); rate 0.2500 kg/ha)
1.0: IPOHE herbicidal rating ([3]; rate 0.0158 kg/ha)
2.0: ABUTH preemergence herbicidal rating (ABUTH (Velvetleaf); rate 0.2500 kg/ha) | IPOHE herbicidal rating ([3]; rate 0.0315 kg/ha) | GALAP herbicidal rating (GALAP (Galium); rate 0.0158 kg/ha) | GALAP herbicidal rating (GALAP (Galium); rate 0.0315 kg/ha) | SETVI herbicidal rating (SETVI (Foxtail, Green) [5]; rate 0.0315 kg/ha) | SETVI herbicidal rating (SETVI (Foxtail, Green) [5]; rate 0.0630 kg/ha) | Herbicidal rating ECHORC [6, 14] | Herbicidal rating ECHORC ([8]; 0.1160 kg/ha)
4.0: GALAP herbicidal rating (GALAP (Galium); rate 0.0630 kg/ha) | Herbicidal rating ECHORC [6, 15] | Herbicidal rating ECHORC ([8]; 0.2310 kg/ha)
2.5: TRZAWR herbicidal rating ([7]; rate 0.0158 kg/ha)
